From US9783524B2, “Protein tyrosine kinase modulators and methods of use” (BETTA PHARMACEUTICALS CO., LTD., priority 2013, dated 2017) come the findings set out here.

The subject of assay [1] is EGFR (T790M) (h). The assay is classed as biochemical, human.
Protocol: (§1) Assay conditions included 10 μM ATP and 100 nM test compounds.
(§2) All reactions are initiated by the addition of the MgATP mix. After incubation for 40 minutes at room temperature, the reaction is stopped by the addition of 3% phosphoric acid solution. 10 μL of the reaction is then spotted onto a P30 filtermat and washed three times for 5 minutes in 75 mM phosphoric acid and once in methanol prior to drying and scintillation counting. This assay is performed by Millipore. The experiment is carried out in duplicate. The value for the control sample (DMSO) was set to 100%, and the values for the compound-treated samples were expressed as activity relative to the control sample.
Assay [2] has as its system activated and resistant T790M forms of EGFR. Briefly: In vitro cellular assays, overall statement. Format: cell-based. The following applies: result in words.
Protocol: Effects of test compounds on in vitro proliferation were measured by MTS cell viability assay.
Assay [3] has as its system EGFR (L858R) (h). Format: biochemical, human.
Protocol: as §1
(§3) All reactions are initiated by the addition of the MgATP mix. After incubation for 40 minutes at room temperature, the reaction is stopped by the addition of 3% phosphoric acid solution. 10 μL of the reaction is then spotted onto a P30 filtermat and washed three times for 5 minutes in 75 mM phosphoric acid and once in methanol prior to drying and scintillation counting. […] The experiment is carried out in duplicate. The value for the control sample (DMSO) was set to 100%, and the values for the compound-treated samples were expressed as activity relative to the control sample.
(§4) (specific activity approx. 500 cpm/pmol, concentration as required) and 0.1 μM test compound.
Assay [4] concerns ALK (h). The assay is classed as biochemical, human. The following applies: 0.1 μM test compound, 10 μM ATP; remaining activity relative to DMSO control = 100%.
Protocol: as §1, §2
Assay [5] has as its system EGFR (h). The assay is classed as biochemical, human.
Protocol: as §1, §3, §4
For assay [6], the system named is EGFR (T790M, L858R) (h). Format: biochemical, human.
Protocol: as §1, §3, §4
Setting [7] is: 0.1 μM test compound, 10 μM ATP, remaining activity relative to DMSO control = 100%.

Read-outs that look alike come from different tables or passages of the source.

As for `COc1cc(Nc2ncc(Cl)c(Nc3ccccc3C(=O)C(=O)N(C)C)n2)ccc1N1CCC(N(C)C)CC1` [Example 118, 2-(2-(5-chloro-2-(4-(4-(dimethylamino)piperidin-1-yl)-3-methoxyphenylamino)pyrimidin-4-ylamino)phenyl)-N,N-dimethyl-2-oxoacetamide], in assay [1], the “Activity (control) % EGFR (T790M) (h)” value stood at 18%. For the same molecule, in assay [2], the “activity against both activated and resistant T790M forms of EGFR in vitro cellular assays” value (from here on “activity … in vitro cellular assays”) was “potent activity”. Besides, the “Activity (control) % EGFR (L858R) (h)” value in assay [3] is listed as 29%. Also, the “Activity (control) % ALK (h)” value in assay [4] is reported as 3%. Besides, the “Activity (control) % EGFR (h)” value in assay [5] is reported as 82%. Besides, the “Activity (control) % EGFR (T790M, L858R) (h)” value in assay [6] is 2%.

Regarding `C=C(CN(C)C)C(=O)Nc1ccc(OC)c(Nc2ncc(Cl)c(Nc3ccccc3C(=O)C(=O)N(C)C)n2)c1` [Example 78, N-(3-(5-chloro-4-(2-(2-(dimethylamino)-2-oxoacetyl)phenylamino)pyrimidin-2-ylamino)-4-methoxyphenyl)-2-((dimethylamino)methyl)acrylamide], in assay [1] (setting [7]), the “Activity (control) % EGFR (T790M) (h)” value is on record as 2%. Besides, in assay [3] (setting [7]), the “Activity (control) % EGFR (L858R) (h)” value was 37%. Besides, the “Activity (control) % ALK (h)” value in assay [4] is given as 36%. The “Activity (control) % EGFR (h)” value in assay [5] (setting [7]) worked out at 68%. The “Activity (control) % EGFR (T790M, L858R) (h)” value in assay [6] (setting [7]) is recorded as 3%.

`C=CC(=O)Nc1ccc(OC)c(Nc2ncc(Cl)c(Nc3ccccc3C(=O)C(=O)N(C)C)n2)c1` [Example 67, N-(3-(5-chloro-4-(2-(2-(dimethylamino)-2-oxoacetyl)phenylamino)pyrimidin-2-ylamino)-4-methoxyphenyl)acrylamide]: the “Activity (control) % EGFR (T790M) (h)” value in assay [1] is 50%. In addition, in assay [2], the “activity … in vitro cellular assays” value is on record as “potent activity”. Moreover, the “Activity (control) % EGFR (L858R) (h)” value in assay [3] was found to be 85%. The “Activity (control) % ALK (h)” value in assay [4] worked out at 13%. In addition, the “Activity (control) % EGFR (T790M, L858R) (h)” value in assay [6] is listed as 9%.

Consider `C=CC(=O)Nc1cc(Nc2ncc(Cl)c(Nc3ccccc3C(=O)C(=O)N(C)C)n2)ccc1OC` [Example 65, N-(5-(5-chloro-4-(2-(2-(dimethylamino)-2-oxoacetyl)phenylamino)pyrimidin-2-ylamino)-2-methoxyphenyl)acrylamide], for which the “Activity (control) % EGFR (T790M) (h)” value in assay [1] (setting [7]) turned out to be 80%. Also, the “activity … in vitro cellular assays” value in assay [2] is “potent activity”. For the same molecule, the “Activity (control) % ALK (h)” value in assay [4] came out at 19%. For the same molecule, the “Activity (control) % EGFR (T790M, L858R) (h)” value in assay [6] (setting [7]) turned out to be 25%.

Turning to `CN(C)C/C=C/C(=O)Nc1cccc(Nc2ncc(Cl)c(Nc3ccccc3C(=O)C(=O)N(C)C)n2)c1` [Example 114, (E)-N-(3-(5-chloro-4-(2-(2-(dimethylamino)-2-oxoacetyl)phenylamino)pyrimidin-2-ylamino)phenyl)-4-(dimethylamino)but-2-enamide], the “Activity (control) % EGFR (T790M) (h)” value in assay [1] (setting [7]) is 47%. For the same molecule, the “Activity (control) % EGFR (L858R) (h)” value in assay [3] (setting [7]) was 52%. Further, the “Activity (control) % ALK (h)” value in assay [4] was determined as 10%. Moreover, in assay [5] (setting [7]), the “Activity (control) % EGFR (h)” value is listed as 91%. Also, the “Activity (control) % EGFR (T790M, L858R) (h)” value in assay [6] (setting [7]) was 8%.

For `COc1cc(N2CCC(N(C)C)CC2)ccc1Nc1ncc(Cl)c(Nc2ccccc2C(=O)C(N)=O)n1` [Example 4, 2-(2-(5-chloro-2-(4-(4-(dimethylamino)piperidin-1-yl)-2-methoxyphenylamino)pyrimidin-4-ylamino)phenyl)-2-oxoacetamide], the “Activity (control) % EGFR (T790M) (h)” value in assay [1] is given as 4%. The “Activity (control) % EGFR (L858R) (h)” value in assay [3] was 8%. Further, the “Activity (control) % ALK (h)” value in assay [4] is given as 8%. For the same molecule, the “Activity (control) % EGFR (h)” value in assay [5] is reported as 65%. Moreover, the “Activity (control) % EGFR (T790M, L858R) (h)” value in assay [6] was determined as 2%.

Consider `C=CC(=O)Nc1cc(Nc2ncc(Cl)c(Nc3ccccc3C(=O)C(=O)N(C)C)n2)c(OC)cc1F` [Example 66, N-(5-(5-chloro-4-(2-(2-(dimethylamino)-2-oxoacetyl)phenylamino)pyrimidin-2-ylamino)-2-fluoro-4-methoxyphenyl)acrylamide], for which the “Activity (control) % EGFR (T790M) (h)” value in assay [1] (setting [7]) stood at 66%. Also, in assay [2], the “activity … in vitro cellular assays” value is given as “potent activity”. In assay [4], the “Activity (control) % ALK (h)” value was determined as 35%. The “Activity (control) % EGFR (T790M, L858R) (h)” value in assay [6] (setting [7]) is 24%.

With `C=C(CN1CCCCC1)C(=O)Nc1ccc(OC)c(Nc2ncc(Cl)c(Nc3ccccc3C(=O)C(=O)N(C)C)n2)c1` [Example 73, N-(3-(5-chloro-4-(2-(2-(dimethylamino)-2-oxoacetyl)phenylamino)pyrimidin-2-ylamino)-4-methoxyphenyl)-2-(piperidin-1-ylmethyl)acrylamide], the “Activity (control) % EGFR (T790M) (h)” value in assay [1] (setting [7]) came to 3%. The “Activity (control) % EGFR (L858R) (h)” value in assay [3] (setting [7]) is recorded as 37%. The “Activity (control) % ALK (h)” value in assay [4] is listed as 17%. Besides, in assay [5] (setting [7]), the “Activity (control) % EGFR (h)” value was 67%. In assay [6] (setting [7]), the “Activity (control) % EGFR (T790M, L858R) (h)” value is listed as 3%.

On to `C=CC(=O)Nc1cc(Nc2ncc(Cl)c(Nc3ccccc3C(=O)C(=O)N(C)C)n2)ccc1OC1CCOC1` (stereo not shown) [Example 124, N-(5-(5-chloro-4-(2-(2-(dimethylamino)-2-oxoacetyl)phenylamino)pyrimidin-2-ylamino)-2-(tetrahydrofuran-3-yloxy)phenyl)acrylamide], for which the “Activity (control) % EGFR (T790M) (h)” value in assay [1] (setting [7]) is on record as 78%. Also, in assay [3] (setting [7]), the “Activity (control) % EGFR (L858R) (h)” value was found to be 100%. For the same molecule, the “Activity (control) % ALK (h)” value in assay [4] is given as 16%. Besides, the “Activity (control) % EGFR (h)” value in assay [5] (setting [7]) is recorded as 109%. Further, the “Activity (control) % EGFR (T790M, L858R) (h)” value in assay [6] (setting [7]) is reported as 20%.

`COc1cc(Nc2ncc(Cl)c(Nc3ccccc3C(=O)C(=O)N(C)C)n2)ccc1N1CCN(C(C)=O)CC1` [Example 94, 2-(2-(2-(4-(4-acetylpiperazin-1-yl)-3-methoxyphenylamino)-5-chloropyrimidin-4-ylamino)phenyl)-N,N-dimethyl-2-oxoacetamide]: the “Activity (control) % EGFR (T790M) (h)” value in assay [1] (setting [7]) was found to be 45%. The “Activity (control) % EGFR (L858R) (h)” value in assay [3] (setting [7]) was 84%. Besides, the “Activity (control) % ALK (h)” value in assay [4] is listed as 6%. Moreover, the “Activity (control) % EGFR (h)” value in assay [5] (setting [7]) was 100%. Moreover, the “Activity (control) % EGFR (T790M, L858R) (h)” value in assay [6] (setting [7]) is on record as 9%.

On to `C=CC(=O)Nc1ccc(OC)c(Nc2ncc(Cl)c(Nc3ccccc3C(=O)C(=O)N3CCN(C)CC3)n2)c1` [Example 89, N-(3-(5-chloro-4-(2-(2-(4-methylpiperazin-1-yl)-2-oxoacetyl)phenylamino)pyrimidin-2-ylamino)-4-methoxyphenyl)acrylamide], for which the “Activity (control) % EGFR (T790M) (h)” value in assay [1] (setting [7]) worked out at 5%. Besides, in assay [3] (setting [7]), the “Activity (control) % EGFR (L858R) (h)” value is on record as 10%. The “Activity (control) % ALK (h)” value in assay [4] stood at 8%. The “Activity (control) % EGFR (h)” value in assay [5] (setting [7]) stood at 67%. Further, the “Activity (control) % EGFR (T790M, L858R) (h)” value in assay [6] (setting [7]) amounted to 1%.

Take `COc1ccc(NC(=O)/C=C/CN2CCOCC2)cc1Nc1ncc(Cl)c(Nc2ccccc2C(=O)C(=O)N(C)C)n1` [Example 79, (E)-N-(3-(5-chloro-4-(2-(2-(dimethylamino)-2-oxoacetyl)phenylamino)pyrimidin-2-ylamino)-4-methoxyphenyl)-4-morpholinobut-2-enamide]: in assay [1] (setting [7]), the “Activity (control) % EGFR (T790M) (h)” value is 16%. Moreover, the “Activity (control) % EGFR (L858R) (h)” value in assay [3] (setting [7]) came out at 25%. Further, the “Activity (control) % ALK (h)” value in assay [4] was 7%. In addition, the “Activity (control) % EGFR (h)” value in assay [5] (setting [7]) is 92%. Further, the “Activity (control) % EGFR (T790M, L858R) (h)” value in assay [6] (setting [7]) was determined as 2%.

As for `C=C(CN(C)CCN(C)C)C(=O)Nc1ccc(OC)c(Nc2ncc(Cl)c(Nc3ccccc3C(=O)C(=O)N(C)C)n2)c1` [Example 126, N-(3-(5-chloro-4-(2-(2-(dimethylamino)-2-oxoacetyl)phenylamino)pyrimidin-2-ylamino)-4-methoxyphenyl)-2-(((2-(dimethylamino)ethyl)(methyl)amino)methyl)acrylamide], the “Activity (control) % EGFR (T790M) (h)” value in assay [1] (setting [7]) was determined as 5%. In addition, in assay [3] (setting [7]), the “Activity (control) % EGFR (L858R) (h)” value came out at 47%. The “Activity (control) % ALK (h)” value in assay [4] turned out to be 19%. Besides, the “Activity (control) % EGFR (h)” value in assay [5] (setting [7]) worked out at 93%. Further, in assay [6] (setting [7]), the “Activity (control) % EGFR (T790M, L858R) (h)” value was 2%.

Regarding `C=CC(=O)Nc1cc(Nc2ncc(Cl)c(Nc3ccccc3C(=O)C(=O)N(C)CCN(C)C)n2)ccc1OC` [Example 102, N-(5-(5-chloro-4-(2-(2-((2-(dimethylamino)ethyl)(methyl)amino)-2-oxoacetyl)phenylamino)pyrimidin-2-ylamino)-2-methoxyphenyl)acrylamide], in assay [1] (setting [7]), the “Activity (control) % EGFR (T790M) (h)” value was determined as 40%. The “Activity (control) % EGFR (L858R) (h)” value in assay [3] (setting [7]) stood at 57%. Besides, the “Activity (control) % ALK (h)” value in assay [4] came to 5%. In addition, the “Activity (control) % EGFR (h)” value in assay [5] (setting [7]) is 98%. Further, the “Activity (control) % EGFR (T790M, L858R) (h)” value in assay [6] (setting [7]) is recorded as 5%.

On to `C=C(CN1CCCCC1)C(=O)Nc1cccc(Nc2ncc(Cl)c(Nc3ccccc3C(=O)C(=O)N(C)C)n2)c1` [Example 113, N-(3-(5-chloro-4-(2-(2-(dimethylamino)-2-oxoacetyl)phenylamino)pyrimidin-2-ylamino)phenyl)-2-(piperidin-1-ylmethyl)acrylamide], for which the “Activity (control) % EGFR (T790M) (h)” value in assay [1] (setting [7]) is listed as 16%. In addition, the “Activity (control) % EGFR (L858R) (h)” value in assay [3] (setting [7]) was determined as 78%. Besides, in assay [4], the “Activity (control) % ALK (h)” value turned out to be 19%. In addition, the “Activity (control) % EGFR (h)” value in assay [5] (setting [7]) is 88%. Also, in assay [6] (setting [7]), the “Activity (control) % EGFR (T790M, L858R) (h)” value amounted to 3%.

`C=CC(=O)Nc1cc(Nc2ncc(C)c(Nc3ccccc3C(=O)C(=O)N(C)C)n2)ccc1OC` [Example 101, N-(5-(4-(2-(2-(dimethylamino)-2-oxoacetyl)phenylamino)-5-methylpyrimidin-2-ylamino)-2-methoxyphenyl)acrylamide]: the “Activity (control) % EGFR (T790M) (h)” value in assay [1] (setting [7]) is given as 83%. In addition, the “Activity (control) % EGFR (L858R) (h)” value in assay [3] (setting [7]) is 94%. In addition, the “Activity (control) % ALK (h)” value in assay [4] is reported as 35%. Moreover, the “Activity (control) % EGFR (h)” value in assay [5] (setting [7]) stood at 110%. The “Activity (control) % EGFR (T790M, L858R) (h)” value in assay [6] (setting [7]) is 41%.
